Our source for the IC50 and Kd values is PMC11999305, “Biochemical characterization of zebrafish Paqr5b” (Biochemistry and Biophysics Reports, 2025).

What is called pIC50 is the negative decadic logarithm of the IC50, by convention in mol/L. A word on the pKd: it is −log10 of the Kd, conventionally taken in molar units. A low value points to a high Kd.

pIC50, pKd: −log10 of the molar value. Like-named read-outs stand apart in the source and are kept apart here.

Experiment [1] has as its target T1, zPaqr5b (zebrafish Paqr5b) (Danio rerio, UniProt Q6DC77).
T1 construct: full-length CDS in pPICZalphaC; alpha-factor pre-pro signal N-terminal (major purified band 55 kDa keeps it, 45 kDa band Kex2-cut), C-terminal c-Myc and 6xHis kept; Pichia pastoris X-33; DDM-solubilized, purified by Ni-NTA and Sephacryl S-300
T1 sequence (Q6DC77 1-347): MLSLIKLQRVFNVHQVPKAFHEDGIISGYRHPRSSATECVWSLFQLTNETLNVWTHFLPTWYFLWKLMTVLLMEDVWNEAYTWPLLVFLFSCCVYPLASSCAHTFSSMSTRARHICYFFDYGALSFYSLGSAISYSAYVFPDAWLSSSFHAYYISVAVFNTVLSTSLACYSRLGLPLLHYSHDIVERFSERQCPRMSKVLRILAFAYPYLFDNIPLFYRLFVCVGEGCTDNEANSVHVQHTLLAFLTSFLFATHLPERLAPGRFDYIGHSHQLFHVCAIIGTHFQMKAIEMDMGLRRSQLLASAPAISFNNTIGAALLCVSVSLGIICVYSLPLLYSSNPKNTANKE
As to the kind of experiment: competition with [3H]-progesterone, filter binding. The text has this:
competition with [3H]-progesterone, filter binding on zPaqr5b (zebrafish Paqr5b)

Experiment [2] has as its target T1, zPaqr5b (zebrafish Paqr5b). As to the kind of experiment: radioligand saturation, filter binding, Scatchard.

As for `CC(=O)[C@H]1CC[C@H]2[C@@H]3CC[C@H]4C[C@H](O)CC[C@]4(C)[C@H]3CC[C@]12C` [ALLO, allopregnanolone], the negative-log IC50 (pIC50) in experiment [1] was 7.60.
For `C[C@@H](O)[C@@]1(O)CC[C@H]2[C@@H]3CCC4=CC(=O)CC[C@]4(C)[C@H]3CC[C@@]21C` [DHP, 17α,20β-dihydroxy-4-pregnen-3-one], the negative-log IC50 (pIC50) in experiment [1] (read-out: IC50) is 7.72.
As to `CC(=O)[C@H]1CC[C@H]2[C@@H]3CCC4=CC(=O)CC[C@]4(C)[C@H]3CC[C@]12C` [P4, progesterone], the negative-log Kd (pKd) in experiment [2] was 8.34. In addition, the negative-log IC50 (pIC50) in experiment [1] (read-out: IC50) is 8.27.
As to `CC(=O)[C@H]1CC[C@H]2[C@@H]3CC=C4C[C@@H](O)CC[C@]4(C)[C@H]3CC[C@]12C` [Preg, pregnenolone], the negative-log IC50 (pIC50) in experiment [1] (read-out: IC50) is 7.42.
